Measured values from patent US8778923B2, “GLP-1 receptor modulators” (Receptos, Inc., priority 2011, dated 2014).
Counter-ions that a name gives are not always drawn.

Target: T1, GLP-1R (Homo sapiens, UniProt P43220)
T1 construct: host or cells: CRE-bla CHO-K1
Experiment: EC20 GLP-1(9-36) PAM cAMP assay: dose response of compound in the presence of fixed concentration of GLP-1(9-36)
Assay type: cell-based
Conditions: GLP-1R CRE-bla CHO-K1 cells, compound dose response in presence of fixed concentration of GLP-1(9-36)
Procedure, shortened: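 GLP-1R CRE-bla CHO-K1 cells in HBSS/10 mM Hepes/0.1% BSA pH 7.4 with IBMX got a 12-point compound dose response plus fixed EC20 GLP-1(9-36), 30 min at 37 °C. cAMP measured by HitHunter luminescence against a standard curve; EC50 and Emax by non-linear regression.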

T1 sequence (P43220 24-463): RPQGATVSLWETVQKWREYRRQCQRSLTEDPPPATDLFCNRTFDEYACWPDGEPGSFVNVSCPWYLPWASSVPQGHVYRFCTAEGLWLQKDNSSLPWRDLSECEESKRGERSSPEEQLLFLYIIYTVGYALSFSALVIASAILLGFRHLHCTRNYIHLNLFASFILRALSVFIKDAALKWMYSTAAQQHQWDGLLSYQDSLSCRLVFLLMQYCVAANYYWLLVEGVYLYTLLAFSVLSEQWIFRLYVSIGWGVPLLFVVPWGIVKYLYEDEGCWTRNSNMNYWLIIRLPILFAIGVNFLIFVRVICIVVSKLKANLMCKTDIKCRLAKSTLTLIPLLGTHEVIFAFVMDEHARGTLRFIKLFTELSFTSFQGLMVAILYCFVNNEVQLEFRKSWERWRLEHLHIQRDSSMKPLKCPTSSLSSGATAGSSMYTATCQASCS
T1 sequence (P01275 100-127 partner limits assumed): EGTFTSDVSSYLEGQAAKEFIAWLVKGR

CCCCCCCCCOc1ccc(-c2cnc(-c3ccc(C[C@H](NC(=O)c4ccc(C(C)(C)C)s4)C(=O)O)cc3)nc2)cc1 [Compound 260]
EC50: < 800 nM

CCCCCCCOc1ccc(N2CCN(c3ccc(C[C@H](NC(=O)c4ccc(C(C)(C)C)cc4)C(=O)O)cc3)CC2=O)cc1 [Compound 261]
EC50: 2500 to 5000 nM

CCCCCCCOc1ccc(N2CCN(c3ccc(C[C@H](NC(=O)c4ccc(C(C)(C)C)s4)C(=O)O)cc3)C2=O)cc1 [Compound 262]
EC50: 2500 to 5000 nM

CCCCCCCOc1ccc(N2CCC(Nc3ccc(C[C@H](NC(=O)c4ccc(C(C)(C)C)cc4)C(=O)O)cc3)CC2)cc1 [Compound 263]
EC50: 800 to 2500 nM

CCCCCCCOc1ccc(C2CCN(c3ccc(C[C@H](NC(=O)c4ccc(C(C)(C)C)cc4)C(=O)O)cc3)CC2)cc1 [Compound 264]
EC50: 800 to 2500 nM

CCCCCCCOc1ccc(C2CCN(c3ccc(C[C@H](NC(=O)c4ccc(C(C)(C)C)cc4)C(=O)O)cc3)C2)cc1 (some centres unmarked) [Compound 265]
EC50: 5000 to 10000 nM

CC(C)(C)c1ccc(C(=O)N[C@@H](Cc2ccc(N3CCN(c4ccc(-c5ccccc5)cc4)CC3)cc2)C(=O)O)cc1 [Compound 266]
EC50: 5000 to 10000 nM

CCCCCCCOc1ccc(N2CCN(c3ccc(C[C@H](NC(=O)c4ccc(C(C)(C)C)cc4)C(=O)O)cc3)CC2)cc1 [Compound 267]
EC50: 800 to 2500 nM

CCCCCCCOc1ccc(N2CCCN(c3ccc(C[C@H](NC(=O)c4ccc(C(C)(C)C)cc4)C(=O)O)cc3)CC2)cc1 [Compound 268]
EC50: 800 to 2500 nM

CCCCCCCOc1ccc(-c2ccc(-c3ccc(C[C@H](NC(=O)c4ccc(C(C)(C)C)cc4)C(=O)O)cc3)nc2)cc1 [Compound 269]
EC50: 800 to 2500 nM

CCCCCCCOc1ccc(-c2ncc(-c3ccc(C[C@H](NC(=O)c4ccc(C(C)(C)C)cc4)C(=O)O)cc3)cn2)cc1 [Compound 271]
EC50: 800 to 2500 nM

CCCCCCCOc1ccc(-c2cnc(-c3ccc(C[C@H](NC(=O)c4ccc(C(C)(C)C)cc4)C(=O)O)cc3)cn2)cc1 [Compound 272]
EC50: 800 to 2500 nM

CCCCCCCOc1ccc(-c2cnc(-c3ccc(C[C@H](NC(=O)c4ccc(C(C)(C)C)cc4)C(=O)O)cc3)nn2)cc1 [Compound 274]
EC50: 800 to 2500 nM

CCCCCCCOc1ccc(-c2cnc(-c3ccc(C[C@H](NC(=O)c4ccc(C(C)(C)C)cc4)C(=O)NCC(=O)O)cc3)nn2)cc1 [Compound 276]
EC50: 800 to 2500 nM

CCCCCCCOc1ccc(-c2ccc(-c3ccc(C[C@H](NC(=O)c4ccc(C(C)(C)C)s4)C(=O)O)cc3)nc2)cc1 [Compound 277]
EC50: < 800 nM

CC(C)(C)c1ccc(-c2ccc(-c3ccc(C[C@H](NC(=O)c4ccc(C(C)(C)C)s4)C(=O)O)cc3)nc2)cc1 [Compound 278]
EC50: 2500 to 5000 nM

CCCCCCCOc1ccc(-c2ccc(-c3ccc(C[C@H](NC(=O)c4ccc(C(C)(C)C)s4)C(=O)O)cc3)nn2)cc1 [Compound 279]
EC50: 5000 to 10000 nM

CC(C)(C)c1ccc(-c2ccc(-c3ccc(C[C@H](NC(=O)c4ccc(C(C)(C)C)s4)C(=O)O)cc3)nn2)cc1 [Compound 280]
EC50: 2500 to 5000 nM

CCCCCCCOc1ccc(-c2cnc(-c3ccc(C[C@H](NC(=O)c4ccc(C(C)(C)C)s4)C(=O)O)cc3)cn2)cc1 [Compound 281]
EC50: < 800 nM

CC(C)(C)c1ccc(-c2cnc(-c3ccc(C[C@H](NC(=O)c4ccc(C(C)(C)C)s4)C(=O)O)cc3)cn2)cc1 [Compound 282]
EC50: 800 to 2500 nM

CCCCCCCOc1ccc(-c2ccc(-c3ccc(C[C@H](NC(=O)c4ccc(C(C)(C)C)s4)C(=O)NCC(=O)O)cc3)nn2)cc1 [Compound 283]
EC50: 5000 to 10000 nM

CCCCCCCOc1ccc(-c2cnc(-c3ccc(C[C@H](NC(=O)c4ccc(C(C)(C)C)s4)C(=O)NCC(=O)O)cc3)cn2)cc1 [Compound 284]
EC50: 800 to 2500 nM

CCCCCCCOc1ccc(-c2ccc(-c3ccc(C[C@H](NC(=O)c4ccc(C(C)(C)C)s4)C(=O)NCC(=O)O)cc3)nc2)cc1 [Compound 285]
EC50: 800 to 2500 nM

CCCCCCCOc1ccc(-c2c[nH]c(-c3ccc(C[C@H](NC(=O)c4ccc(C(C)(C)C)cc4)C(=O)O)cc3)n2)cc1 [Compound 286, (S)-2-(4-(tert-butyl)benzamido)-3-(4-(4-(4-(heptyloxy)phenyl)-1H-imidazol-2-yl)phenyl)propanoic acid hydrochloride]
EC50: 2500 to 5000 nM

CCCCCCCOc1ccc(-n2cnc(-c3ccc(C[C@H](NC(=O)c4ccc(C(C)(C)C)cc4)C(=O)O)cc3)c2)cc1 [Compound 287, (S)-2-(4-(tert-butyl)benzamido)-3-(4-(1-(4-(heptyloxy)phenyl)-1H-imidazol-4-yl)phenyl)propanoic acid]
EC50: 5000 to 10000 nM

Cc1ccc(-c2ccc(-n3cc(-c4ccc(C[C@H](NC(=O)c5ccc(C(C)(C)C)cc5)C(=O)O)cc4)cn3)cc2)cc1 [Compound 288, (S)-2-(4-(tert-butyl)benzamido)-3-(4-(1-(4′-methyl-[1,1′-biphenyl]-4-yl)-1H-pyrazol-4-yl)phenyl)propanoic acid]
EC50: 2500 to 5000 nM

CCCCCCCOc1ccc(-c2cnc(-c3ccc(C[C@@H](CC(=O)O)NC(=O)c4ccc(C(C)(C)C)cc4)cc3)nc2)cc1 [Compound 291, (S)-3-(4-(tert-butyl)benzamido)-4-(4-(5-(4-(heptyloxy)phenyl)pyrimidin-2-yl)phenyl)butanoic acid]
EC50: 800 to 2500 nM

CCCCCCCOc1ccc(-c2cnc(-c3ccc(C[C@H](NC(=O)c4ccc(C(C)(C)C)cc4)C(=O)O)cc3)nc2OC)cc1 [Compound 292, (S)-2-(4-(tert-butyl)benzamido)-3-(4-(5-(4-(heptyloxy)phenyl)-4-methoxypyrimidin-2-yl)phenyl)propanoic acid]
EC50: 800 to 2500 nM

CCCCCCCOc1ccc(-c2cnc(-c3ccc(C[C@H](NC(=O)c4ccc(C(C)(C)C)cc4)C(=O)O)cc3)nc2N(C)C)cc1 [Compound 293]
EC50: 2500 to 5000 nM

CCCCCCCOc1ccc(-c2cnc(-c3ccc(C[C@H](NC(=O)c4ccc(C(C)(C)C)cc4)C(=O)O)cc3)cc2C)cc1 [Compound 294]
EC50: 800 to 2500 nM

CCCCCCCOc1ccc(-c2cnc(-c3ccc(C[C@H](NC(=O)c4ccc(C(C)(C)C)cc4)C(=O)O)cc3)cc2C(F)(F)F)cc1 [Compound 295]
EC50: 800 to 2500 nM

CCCCCCCOc1ccc(-c2cnc(-c3ccc(C[C@H](NC(=O)c4coc(C(C)(C)C)n4)C(=O)O)cc3)nc2)cc1 [Compound 296]
EC50: 800 to 2500 nM

CCCCCCCOc1ccc(-c2cnc(-c3ccc(C[C@H](NC(=O)c4ccc(C(C)(C)C)cc4)C(=O)NCC(=O)O)cc3)nc2)cc1 [Compound 297, (S)-(2-(4-(tert-butyl)benzamido)-3-(4-(5-(4-(heptyloxy)phenyl)pyrimidin-2-yl)phenyl)propanoyl)glycine]
EC50: < 800 nM

CCCCCCCOc1ccc(-c2cnc(-c3ccc(C[C@H](NC(=O)c4ccc(C(C)(C)C)cc4)C(=O)NCCC(=O)O)cc3)nc2)cc1 [Compound 298, (S)-3-(2-(4-(tert-butyl)benzamido)-3-(4-(5-(4-(heptyloxy)phenyl)pyrimidin-2-yl)phenyl)propanamido)propanoic acid]
EC50: < 800 nM

CCCCCCCOc1ccc(-c2cnc(-c3ccc(C[C@H](NC(=O)c4ccc(C(C)(C)C)cc4)C(=O)NS(C)(=O)=O)cc3)nc2)cc1 [Compound 299, (S)-4-(tert-butyl)-N-(3-(4 (5 (4 (heptyloxy)phenyl)pyrimidin-2-yl)phenyl)-1-(methylsulfonamido)-1-oxopropan-2-yl)benzamide]
EC50: < 800 nM

CCCCCCCOc1ccc(-c2cnc(-c3ccc(C[C@H](NC(=O)c4ccc(C(C)(C)C)cc4)C(=O)N[C@@H](CC(N)=O)C(=O)O)cc3)nc2)cc1 [Compound 300]
EC50: < 800 nM

CCCCCCCOc1ccc(-c2cnc(-c3ccc(C[C@H](NC(=O)c4ccc(C(C)(C)C)cc4)C(=O)NCCCC(=O)O)cc3)nc2)cc1 [Compound 301]
EC50: 800 to 2500 nM

CCCCCCCOc1ccc(-c2cnc(-c3ccc(C[C@H](NC(=O)c4ccc(C(C)(C)C)cc4)C(=O)N(C)CCC(=O)O)cc3)nc2)cc1 [Compound 302]
EC50: 2500 to 5000 nM

CCCCCCCOc1ccc(-c2cnc(-c3ccc(C[C@H](NC(=O)c4ccc(C(C)(C)C)cc4)C(=O)NCC(=O)Nc4nn[nH]n4)cc3)nc2)cc1 [Compound 303]
EC50: 800 to 2500 nM

CCCCCCCOc1ccc(-c2cnc(-c3ccc(C[C@H](NC(=O)c4ccc(C(C)(C)C)cc4)C(=O)N(C)CC(=O)O)cc3)nc2)cc1 [Compound 304]
EC50: 800 to 2500 nM

CCCCCCCOc1ccc(-c2cnc(-c3ccc(C[C@H](NC(=O)c4ccc(C(C)C)cc4)C(=O)N[C@@H](C)C(=O)O)cc3)nc2)cc1 [Compound 305]
EC50: 800 to 2500 nM

CCCCCCCOc1ccc(-c2cnc(-c3ccc(C[C@H](NC(=O)c4ccc(C(C)C)cc4)C(=O)N[C@@H](CC(N)=O)C(=O)O)cc3)nc2)cc1 [Compound 306]
EC50: < 800 nM

CCCCCCCOc1ccc(-c2cnc(-c3ccc(C[C@H](NC(=O)c4ccc(C(C)C)cc4)C(=O)N[C@@H](CC(=O)O)C(=O)O)cc3)nc2)cc1 [Compound 307]
EC50: 800 to 2500 nM

CCCCCCCOc1ccc(-c2cnc(-c3ccc(C[C@H](NC(=O)c4ccc(C(C)C)cc4)C(=O)N[C@@H](CC(C)C)C(=O)O)cc3)nc2)cc1 [Compound 308]
EC50: 800 to 2500 nM

CCCCCCCOc1ccc(-c2cnc(-c3ccc(C[C@H](NC(=O)c4ccc(C(C)C)cc4)C(=O)N[C@@H](CO)C(=O)O)cc3)nc2)cc1 [Compound 309]
EC50: < 800 nM

CCCCCCCOc1ccc(-c2cnc(-c3ccc(C[C@H](NC(=O)c4ccc(C(C)C)cc4)C(=O)N[C@@H](CCCCN)C(=O)O)cc3)nc2)cc1 [Compound 310]
EC50: < 800 nM

CCCCCCCOc1ccc(-c2cnc(-c3ccc(C[C@H](NC(=O)c4ccc(C(C)C)cc4)C(=O)N[C@@H](Cc4cnc[nH]4)C(=O)O)cc3)nc2)cc1 [Compound 311]
EC50: 800 to 2500 nM

CCCCCCCOc1ccc(-c2cnc(-c3ccc(C[C@H](NC(=O)c4ccc(C(C)C)cc4)C(=O)N[C@H](C)C(=O)O)cc3)nc2)cc1 [Compound 312]
EC50: 800 to 2500 nM

CCCCCCCOc1ccc(-c2cnc(-c3ccc(C[C@H](NC(=O)c4ccc(C(C)C)cc4)C(=O)N[C@H](CC(C)C)C(=O)O)cc3)nc2)cc1 [Compound 313]
EC50: 800 to 2500 nM

CCCCCCCOc1ccc(-c2cnc(-c3ccc(C[C@H](NC(=O)c4ccc(C(C)C)cc4)C(=O)N[C@H](CCCCN)C(=O)O)cc3)nc2)cc1 [Compound 314]
EC50: 800 to 2500 nM
